The source of these data is PubChem BioAssay AID1259407 (Chemical Carcinogenesis Research Information System (CCRIS), 2018).

Activity calls are given as the source filed them. No rule for the calls is given here.

This data set relates to CCRIS mutagenicity, Ames/micronucleus/aberration tests. The experiment in a line: CCRIS mutagenicity studies.
The mark [1] stands for this setting: Test System: AMES SALMONELLA TYPHIMURIUM, Strain/Indicator: TA98, Metabolic Activation: NONE, Method: STANDARD PLATE.
Where [2] appears, read: Test System: AMES SALMONELLA TYPHIMURIUM, Strain/Indicator: TA98, Metabolic Activation: RAT, LIVER, S-9, AROCLOR 1254, Method: STANDARD PLATE.
Where [3] appears, read: Test System: AMES SALMONELLA TYPHIMURIUM, Strain/Indicator: TA100, Metabolic Activation: NONE, Method: STANDARD PLATE.
[4] abbreviates: Test System: AMES SALMONELLA TYPHIMURIUM, Strain/Indicator: TA100, Metabolic Activation: RAT, LIVER, S-9, AROCLOR 1254, Method: STANDARD PLATE.

Consider `COC1=CC(=O)c2nc(C)c3c([nH]c4ccccc43)c2C1=O`, for which the mutagenic call is “active; positive” (Test System: AMES SALMONELLA TYPHIMURIUM, Strain/Indicator: TA97, Metabolic Activation: NONE, Method: STANDARD PLATE); “active; positive” (Test System: AMES SALMONELLA TYPHIMURIUM, Strain/Indicator: TA97, Metabolic Activation: RAT, LIVER, S-9, AROCLOR 1254, Method: STANDARD PLATE); “inactive; negative” under setting [1]; “active; positive” under setting [2]; “active; positive” under setting [3]; “inactive; negative” under setting [4]. Moreover, the mutagenic call by setting is: (Test System: AMES SALMONELLA TYPHIMURIUM, Strain/Indicator: TA102, Metabolic Activation: NONE, Method: STANDARD PLATE) “inactive; negative”; (Test System: AMES SALMONELLA TYPHIMURIUM, Strain/Indicator: TA102, Metabolic Activation: RAT, LIVER, S-9, AROCLOR 1254, Method: STANDARD PLATE) “inactive; negative”.
Turning to `CCC[C@]1(O)CC[C@H]2[C@@H]3CC[C@H]4CC(=O)C[C@H](C)[C@]4(C)[C@H]3CC[C@@]21C`, the mutagenic call runs as follows: (End Point: IN VITRO CHROMOSOMAL ABERRATIONS, Test System: HUMAN PERIPHERAL LYMPHOCYTES, Metabolic Activation: NONE) “inactive; negative”; (End Point: IN VITRO CHROMOSOMAL ABERRATIONS, Test System: HUMAN PERIPHERAL LYMPHOCYTES, Metabolic Activation: RAT, LIVER, S-9, AROCLOR 1254) “inactive; negative”; (End Point: IN VIVO MICRONUCLEUS, Test System: BONE MARROW POLYCHROMATIC ERYTHROCYTES, Species: MOUSE, Strain/Sex: NMRI/MALE, FEMALE, Route: SUBCUTANEOUS INJECTION) “inactive; negative”; (Test System: AMES SALMONELLA TYPHIMURIUM, Strain/Indicator: TA98, Metabolic Activation: NONE, Method: PREINCUBATION) “inactive; negative”; under setting [1], “inactive; negative”; (Test System: AMES SALMONELLA TYPHIMURIUM, Strain/Indicator: TA98, Metabolic Activation: RAT, LIVER, S-9, AROCLOR 1254, Method: PREINCUBATION) “inactive; negative”. The mutagenic call runs as follows: under setting [2], “inactive; negative”; (Test System: AMES SALMONELLA TYPHIMURIUM, Strain/Indicator: TA100, Metabolic Activation: NONE, Method: PREINCUBATION) “inactive; negative”; under setting [3], “inactive; negative”; (Test System: AMES SALMONELLA TYPHIMURIUM, Strain/Indicator: TA100, Metabolic Activation: RAT, LIVER, S-9, AROCLOR 1254, Method: PREINCUBATION) “inactive; negative”; under setting [4], “inactive; negative”; (Test System: AMES SALMONELLA TYPHIMURIUM, Strain/Indicator: TA1535, Metabolic Activation: NONE, Method: PREINCUBATION) “inactive; negative”. The mutagenic call is “inactive; negative” (Test System: AMES SALMONELLA TYPHIMURIUM, Strain/Indicator: TA1535, Metabolic Activation: NONE, Method: STANDARD PLATE); “inactive; negative” (Test System: AMES SALMONELLA TYPHIMURIUM, Strain/Indicator: TA1535, Metabolic Activation: RAT, LIVER, S-9, AROCLOR 1254, Method: PREINCUBATION); “inactive; negative” (Test System: AMES SALMONELLA TYPHIMURIUM, Strain/Indicator: TA1535, Metabolic Activation: RAT, LIVER, S-9, AROCLOR 1254, Method: STANDARD PLATE); “inactive; negative” (Test System: AMES SALMONELLA TYPHIMURIUM, Strain/Indicator: TA1537, Metabolic Activation: NONE, Method: PREINCUBATION); “inactive; negative” (Test System: AMES SALMONELLA TYPHIMURIUM, Strain/Indicator: TA1537, Metabolic Activation: NONE, Method: STANDARD PLATE); “inactive; negative” (Test System: AMES SALMONELLA TYPHIMURIUM, Strain/Indicator: TA1537, Metabolic Activation: RAT, LIVER, S-9, AROCLOR 1254, Method: PREINCUBATION). In addition, the mutagenic call runs as follows: (Test System: AMES SALMONELLA TYPHIMURIUM, Strain/Indicator: TA1537, Metabolic Activation: RAT, LIVER, S-9, AROCLOR 1254, Method: STANDARD PLATE) “inactive; negative”; (Test System: AMES SALMONELLA TYPHIMURIUM, Strain/Indicator: TA1538, Metabolic Activation: NONE, Method: PREINCUBATION) “inactive; negative”; (Test System: AMES SALMONELLA TYPHIMURIUM, Strain/Indicator: TA1538, Metabolic Activation: NONE, Method: STANDARD PLATE) “inactive; negative”; (Test System: AMES SALMONELLA TYPHIMURIUM, Strain/Indicator: TA1538, Metabolic Activation: RAT, LIVER, S-9, AROCLOR 1254, Method: PREINCUBATION) “inactive; negative”; (Test System: AMES SALMONELLA TYPHIMURIUM, Strain/Indicator: TA1538, Metabolic Activation: RAT, LIVER, S-9, AROCLOR 1254, Method: STANDARD PLATE) “inactive; negative”; (Test System: CHINESE HAMSTER V-79, Strain/Indicator: V-79 (HGPRT)/6-THIOGUANINE, Metabolic Activation: NONE) “inactive; negative”. Besides, the mutagenic call (Test System: CHINESE HAMSTER V-79, Strain/Indicator: V-79 (HGPRT)/6-THIOGUANINE, Metabolic Activation: RAT, LIVER, S-9, AROCLOR 1254) is “inactive; negative”.
`CCOP(=O)(NC(C)C)Oc1ccccc1C(=O)OC(C)C` (configuration not stated): the mutagenic call reads like this: under setting [1], “active; positive”; (Test System: AMES SALMONELLA TYPHIMURIUM, Strain/Indicator: TA98, Metabolic Activation: RAT, LIVER, S-9, Method: STANDARD PLATE) “active; positive”; under setting [3], “inactive; negative”; (Test System: AMES SALMONELLA TYPHIMURIUM, Strain/Indicator: TA100, Metabolic Activation: RAT, LIVER, S-9, Method: STANDARD PLATE) “inactive; negative”.
